{
  "source": "patent US11603570B2",
  "about": "“Methods for the detection and treatment of leukemias that are responsive to DOT1L inhibition” (MEMORIAL SLOAN KETTERING CANCER CENTER, priority 2013, dated 2023)",
  "origin": "cited, not measured here",
  "key": {"[1]": {"system": "MLL-translocated leukemia cells", "settings": "infusion, including continuous infusion; cited from earlier work"}, "[2]": {"settings": "rats; cited from earlier work"}, "[3]": {"settings": "mice or rats, at a dose efficacious against MLL-translocated leukemia cells; cited from earlier work"}, "[4]": {"settings": "cited from earlier work"}, "other methyltransferases": {"system": "other methyltransferases", "settings": "in words; FIG. 1B; cited from earlier work"}, "[5]": {"settings": "dogs; cited from earlier work"}, "[6]": {"system": "MLL-rearranged leukemia xenograft", "settings": "cited from earlier work"}},
  "note": "Like-named read-outs stand apart in the source and are kept apart here.",
  "data": [
    {"smiles": "CC(C)N(C[C@H]1O[C@@H](n2cnc3c(N)ncnc32)[C@H](O)[C@@H]1O)C1CC(CCc2nc3cc(C(C)(C)C)ccc3[nH]2)C1", "note": "(stereo partly drawn) [EPZ005676, (2R,3R,4S,5R)-2-(6-amino-9H-purin-9-yl)-5-((((1r,3S)-3-(2-(5-(tert-butyl)-1H-benzo[d]imidazol-2-yl)ethyl)cyclobutyl)(isopropyl)amino)methyl)tetrahydrofuran-3,4-diol]", "values": [
      {"measurement": "growth of MLL-translocated leukemia cells in mice", "setting": "[1]", "result": "suppresses the growth"},
      {"measurement": "effective pharmacokinetic half-life in systemic circulation", "setting": "[2]", "result": 15, "unit": "min"},
      {"measurement": "hematopoietic toxicity", "setting": "[3]", "result": "did not show hematopoietic toxicity"},
      {"measurement": "solubility in aqueous solution", "setting": "[4]", "result": "soluble"},
      {"measurement": "specificity for DOT1L / H3K79me as compared to other methyl transferases", "setting": "other methyltransferases", "result": "highly selective"},
      {"measurement": "effective pharmacokinetic half-life in systemic circulation", "setting": "[5]", "result": 90, "unit": "min"},
      {"measurement": "tumor response at the highest dose", "setting": "[6]; continuous intravenous infusion for 21 days, highest dose", "result": "complete tumor regressions"},
      {"measurement": "anti-tumor activity", "setting": "[6]; continuous intravenous infusion for 21 days", "result": "dose-dependent anti-tumor activity"},
      {"measurement": "no regrowth after the cessation of treatment", "setting": "[6]; highest dose", "result": "up to 32 days"}
    ]}
  ]
}
